Results reported in patent US12458622B2, “Methods of treatment of coronavirus-induced inflammation conditions” (priority 2020, dated 2025).
Read-outs that look alike come from different tables or passages of the source.

Legend:
pH of solution in saline = type: physicochemical; conditions: 25 mg in 25 ml of saline
Procedure: In some embodiments, the compounds of the invention are provided as part of a kit for infusion. The kit contains from about 25 mg to about 250 mg of the compound of Formula I or II in a volume of buffer or saline from about 25 ml to about 250 ml. The pH of saline or buffer pH ranges from about 5.8 to about 6.8. […] Alternatively, the buffer can be Ringer's lactate (pH 6.5). Alternatively yet, the buffer can be citrate buffer (pH 6.0).

Rat = conditions: cited from earlier work
[1] = tested on: BV2 cells stably expressing CD33 (BV2-CD33WT); test: Aβ42 uptake, ELISA; type: cell-based; conditions: 16 hours pretreatment then 2 hours with Aβ42, vs DMSO
BV2 microglial cells = test: Aβ42 uptake, confocal microscopy and ELISA; type: cell-based; conditions: naive BV2 cells, 16 hours pretreatment then 2 hours with Aβ42, vs DMSO
Procedure: After incubation, the cells were labeled with a plasma membrane dye (PM, green) and imaged.

[2] = tested on: HMC3 human microglia cells; test: Cell viability assay by AO/PI stain; type: cell-based; conditions: 0.3 μM, TNF-α 0.3 μg/mL
Procedure: (§1) Human microglial cell line HMC3 (CRL-3304) was purchased from ATCC (American Type Culture Collection). HMC3 cell line was cultured in DMEM medium with 10% FBS, 1% L-glutamine, and 1% penicillin/streptomycin. Cells were maintained in 37° C. incubator at 5% CO2.
HMC3 cells were resuspended, counted using the LUNA-II Automated Cell Counter, seeded in the 6-well plate (300 K cells/2 mL medium/well), and incubated overnight to allow cells to attach. Cells were treated with TNF-α or IFN-γ at five different concentrations (0, 10, 30, 100, 300 ng/mL) for 24 hr to induce cell activation. The supernatant medium was completely aspirated and 1 mL of fresh DMEM was added to wash the cell layer to remove detached cells and debris. The attached cells were resuspended and washed with PBS. Cells were washed with FACS buffer (2% FBS in PBS) prior to incubation with Zombie Violet Fixable Viability Dye (#423114, Biolegend, 1:500 dilution) and Human Fe Receptor Blocking Solution (#422302, Biolegend, 1:20) diluted in FACS buffer at RT for 10 min in the dark. Cells were then washed with FACS buffer and incubated at RT for 20 min with the following cell-surface antibodies: FITC anti-MHC II (#361706, Biolegend), PerCP/Cy5.5 anti-CD11b (#301328, Biolegend), BV605 anti-CD40 (#334336, Biolegend), PE anti-CD86 (#374206, Biolegend), PE/Cy7 anti-CD163 (#326514, Biolegend), APC anti-CD206 (#321110, Biolegend), and PerCP/Cy5.5 anti-CD14 (#367110, Biolegend). All of the cell-surface antibodies were diluted 1:20 in FACS buffer. Cells were permeabilized using the Transcription Factor Fixation/Permeabilization Buffer Set (#424401, Biolegend). Then cells were incubated with the following intracellular antibodies: APC/Cy7 anti-CD68 (#333822, Biolegend), purified anti-IBA1 (#PA5-27436, Invitrogen), Goat anti-Rabbit-Alexa Fluor 647 (#A21245, Invitrogen), purified anti-GFAP (#644702, Biolegend), and Goat anti-Mouse-Alexa Fluor 488 (#11029, Invitrogen). All of the intracellular antibodies were diluted 1:100 in the Permeabilization buffer (lx). Cells were washed with Permeabilization buffer and fixed in Fixation Buffer (#420801, Biolegend). Flow cytometry was performed using the Attune NxT Acoustic Focusing Cytometer (Thermo Fisher Scientific). Analysis of flow cytometry data was performed via FCS Express 7 (DeNovo Software).
Cell viability was assessed with a LUNA-FL Automated fluorescence cell counter. Viable nucleated cells show green fluorescence and dying nucleated cells show red fluorescence. 18 µL of sample was mixed with 2 μL Acridine Orange/Propidium Iodide (AO/PI) Stain.
(§2) All the data were presented as mean±standard error from at least three times, each done in triplicate. The statistical significance between two groups was determined by Student's t test, whereas the comparisons of multiple groups were carried out by one-way ANOVA, followed by Bonferroni's post-test using GraphPad Prism 7 (GraphPad Software, Inc.). A probability value of * p<0.05 was considered to be significant.

Rhesus Monkeys = conditions: daily IV dosing at 0, 2, 10 and 50 mg/kg, 6 months; cited from earlier work
Dog = conditions: cited from earlier work
[3] = tested on: HMC3 human microglia cells; test: MSD U-PLEX cytokine secretion induced by TNF-α; type: cell-based; conditions: TNF-α induced, 24 hr; for inhibition at 3 µM: Homo sapiens, HMC3
Procedure: as §1
HMC3 cells were resuspended, counted using the LUNA-II Automated Cell Counter, seeded in the 6-well plate (400 K cells/2 mL medium/well), and incubated overnight to allow cells to attach. The media and detached cells were removed next day. The cell layer was washed three times in PBS and once in serum- and phenolred-free DMEM (SPFM). […] The conditioned medium was collected and centrifuged at 1,000×RCF (g) for 5 min to pellet detached cells and large debris, which was subsequently passed through a 0.22 μm filter with PVDF membrane to remove smaller debris. Samples of the supernatant medium were put in a CoolRack (#07210041, Fisher Scientific) on dry ice for Snap-freezing and kept at −80° C. until use.
Meso-scale U-PLEX plates that detect a cytokine panel including IL-1β, IL-2, IL-4, IL-6, IL-8, IL-10, IFN-γ, TNF-α, and a chemokine panel including IP-10/CXCL10, MCP-1/CCL2, MIP-1α/CCL3, MIP-1P/CCL4, Eotaxin/CCL11, were used as per manufacture's protocol. 25 μL of the conditioned medium was used in each well of the MSD plates to detect the analytes. The plates were then analyzed on an MSD QuickPlex SQ120 instrument.
as §2

Stump-tailed Monkeys = conditions: cited from earlier work

Compound: O=C(O)c1cc(=O)c2c(OCC(O)COc3cccc4oc(C(=O)O)cc(=O)c34)cccc2o1 [cromolyn]
- pH (pH of solution in saline): 6.8
- LD50 Value (Rat; IP): >4 gm/kg
- LD50 Value (Rat; IV): >4 gm/kg
- LD50 Value (Rat; Oral): >11 gm/kg
- LD50 Value (Rat; SC): 6 gm/kg
- Internalized Aβ42 [1]: increased levels of internalized Aβ42
- Aβ42 uptake (BV2 microglial cells): increased Aβ42 uptake
- TNF-α induced cell death [2]: significantly reduced cell death
- Body weight, observations, clinical laboratory results, organ weights, gross and microscopic pathology (Rhesus Monkeys): within normal limits and
- LD50 Value (Dog; IV): >1600 mg/kg
- LD50 Value (Dog; Oral): >4 gm/kg
- IFN-γ concentration ([3]; 0.3 μM): decreased
- IL-1β concentration ([3]; 0.3 μM): decreased
- IL-6 concentration ([3]; 0.3 μM): decreased
- IL-8 concentration ([3]; 0.3 μM): decreased
- inhibition at 3 µM ([3]; read-out: inhibition of IFN-γ): > 40%
- inhibition at 3 µM ([3]; read-out: inhibition of IL-1β): > 40%
- inhibition at 3 µM ([3]; read-out: inhibition of IL-6): > 40%
- inhibition at 3 µM ([3]; read-out: inhibition of IL-8): 25.8%
- Survival until the scheduled necropsy (Stump-tailed Monkeys; single IV dose 333 mg/kg, 4 to 10-day observation): given 333 mg/kg survived
- Clinical signs (Stump-tailed Monkeys; single IV dose 5082 mg/kg): stertorous breathing,
- Time to death of one monkey (Stump-tailed Monkeys; single IV dose 5082 mg/kg): mg/kg died within 4 hours
